The results in this text go back to US8063048B2, “Acetylenyl-pyrazolo-pyrimidine derivatives” (Hoffmann-La Roche Inc., priority 2005, dated 2011).

As a reminder, the melting point is the temperature of the solid-liquid transition.

For the molecule `Cc1cc(-c2ccc(C(F)(F)F)cc2)nc2c(C#Cc3cnc(N)nc3)cnn12` [Example 315, 5-[7-Methyl-5-(4-trifluoromethyl-phenyl)-pyrazolo[1,5-a]pyrimidin-3-ylethynyl]-pyrimidin-2-ylamine], the melting point lay in the range of 246 to 248 °C.
Under `CCOc1cccc(-c2cc(C(F)F)n3ncc(C#Cc4cccc(S(N)(=O)=O)c4)c3n2)c1` [Example 201, 3-[7-Difluoromethyl-5-(3-ethoxy-phenyl)-pyrazolo[1,5-a]pyrimidin-3-ylethynyl]-benzenesulfonamide] stands 167 to 168 °C; under `NS(=O)(=O)c1ccc(C#Cc2cnn3c(C4CC4)cc(-c4ccc(Cl)c(Cl)c4)nc23)cc1` [Example 88, 4-[7-Cyclopropyl-5-(3,4-dichloro-phenyl)-pyrazolo[1,5-a]pyrimidin-3-ylethynyl]-benzenesulfonamide], 259 to 261 °C.
On to `Cc1cc(-c2cc(C(F)F)n3ncc(C#Cc4ccc(S(=O)(=O)N5CCN(C)CC5)s4)c3n2)ccc1Cl` [Example 255, 5-(4-Chloro-3-methyl-phenyl)-7-difluoromethyl-3-[5-(4-methyl-piperazine-1-sulfonyl)-thiophen-2-ylethynyl]-pyrazolo[1,5-a]pyrimidine], for which the melting point was determined as 191 °C.
Under `Cc1ncccc1C#Cc1cnn2c(C(F)(F)F)cc(-c3ccc(C(F)(F)F)cc3)nc12` [Example 12, 3-(2-Methyl-pyridin-3-ylethynyl)-7-trifluoromethyl-5-(4-trifluoromethyl-phenyl)-pyrazolo[1,5-a]pyrimidine] stands 198 °C; under `NS(=O)(=O)c1ccc(C#Cc2cnn3c(C(F)(F)F)cc(-c4cccc(C(F)(F)F)c4)nc23)cc1` [Example 113, 4-[7-Trifluoromethyl-5-(3-trifluoromethyl-phenyl)-pyrazolo[1,5-a]pyrimidin-3-ylethynyl]-benzenesulfonamide], 264 °C.
Under `Nc1ncc(C#Cc2cnn3c(C4CC4)cc(-c4ccc(Cl)cc4)nc23)cn1` [Example 313, 5-[5-(4-Chloro-phenyl)-7-cyclopropyl-pyrazolo[1,5-a]pyrimidin-3-ylethynyl]-pyrimidin-2-ylamine] stands 243 to 246 °C; under `CC(C)(C)OC(=O)NCCNS(=O)(=O)c1cc(C#Cc2cnn3c(C(F)F)cc(-c4ccc(C(F)(F)F)cc4)nc23)c(F)cc1F` [Example 185, (2-{5-[7-Difluoromethyl-5-(4-trifluoromethyl-phenyl)-pyrazolo[1,5-a]pyrimidin-3-ylethynyl]-2,4-difluoro-benzenesulfonylamino}-ethyl)-carbamic acid tert-butyl ester], 203 to 204 °C (dec.).
As to `COc1ccc(C#Cc2cnn3c(C(F)(F)F)cc(-c4ccc(C(F)(F)F)cc4)nc23)cn1` [Example 56, 3-(6-Methoxy-pyridin-3-ylethynyl)-7-trifluoromethyl-5-(4-trifluoromethyl-phenyl)-pyrazolo[1,5-a]pyrimidine], the melting point lay in the range of 166 to 168 °C.
`N#Cc1cc(C#Cc2cnn3c(C(F)(F)F)cc(-c4ccc(C(F)(F)F)cc4)nc23)cnc1N` [Example 219, 2-Amino-5-[7-trifluoromethyl-5-(4-trifluoromethyl-phenyl)-pyrazolo[1,5-a]pyrimidin-3-ylethynyl]-nicotinonitrile] yielded a melting point of 264 °C.
Under `NS(=O)(=O)c1cncc(C#Cc2cnn3ccc(-c4ccc(Cl)cc4)nc23)c1` [Example 73, 5-[5-(4-Chloro-phenyl)-pyrazolo[1,5-a]pyrimidin-3-ylethynyl]-pyridine-3-sulfonic acid amide] stands 248 to 249 °C.
`Nc1ccc(C#Cc2cnn3ccc(-c4ccc(C(F)(F)F)cc4)nc23)cn1` [Example 310, 5-[5-(4-Trifluoromethyl-phenyl)-pyrazolo[1,5-a]pyrimidin-3-ylethynyl]-pyridin-2-ylamine] showed a melting point of 213 to 214 °C.
Consider `CN(C)S(=O)(=O)c1ccc(C#Cc2cnn3c(C(F)F)cc(-c4ccc(C(F)(F)F)cc4)nc23)cc1` [Example 136, 4-[7-Difluoromethyl-5-(4-trifluoromethyl-phenyl)-pyrazolo[1,5-a]pyrimidin-3-ylethynyl]-N,N-dimethyl-benzenesulfonamide], for which the melting point lay within 211 to 212 °C.
As to `O=S(=O)(O)c1cnc(C#Cc2cnn3c(C(F)(F)F)cc(-c4ccc(C(F)(F)F)cc4)nc23)s1` [Example 20, 2-[7-Trifluoromethyl-5-(4-trifluoromethyl-phenyl)-pyrazolo[1,5-a]pyrimidin-3-ylethynyl]-thiazole-5-sulfonic acid], the melting point was above 295 °C.
Take `Cc1cc(-c2ccc(Cl)cc2)cn2c(C#Cc3ccc(S(N)(=O)=O)s3)cnc12` [Example 211, 5-[6-(4-Chloro-phenyl)-8-methyl-imidazo[1,2-a]pyridin-3-ylethynyl]-thiophene-2-sulfonic acid amide]: the melting point was 265 to 266 °C.
`O=S(=O)(NC(CO)CO)c1ccc(C#Cc2cnn3c(C(F)(F)F)cc(-c4ccc(C(F)(F)F)cc4)nc23)s1` [Example 163, 5-[7-Trifluoromethyl-5-(4-trifluoromethyl-phenyl)-pyrazolo[1,5-a]pyrimidin-3-ylethynyl]-thiophene-2-sulfonic acid (2-hydroxy-1-hydroxymethyl-ethyl)-amide]: the melting point was found to be 247 °C.
`Cc1cc(-c2cc(C(F)(F)F)n3ncc(C#Cc4ccc(S(N)(=O)=O)cc4)c3n2)ccc1Cl` [Example 110, 4-[5-(4-Chloro-3-methyl-phenyl)-7-trifluoromethyl-pyrazolo[1,5-a]pyrimidin-3-ylethynyl]-benzenesulfonamide] showed a melting point of 275 °C.
Turning to `CC(CO)(CO)NS(=O)(=O)c1cncc(C#Cc2cnn3c(C(F)(F)F)cc(-c4ccc(C(F)(F)F)cc4)nc23)c1` [Example 14, 5-[7-Trifluoromethyl-5-(4-trifluoromethyl-phenyl)-pyrazolo[1,5-a]pyrimidin-3-ylethynyl]-pyridine-3-sulfonic acid (2-hydroxy-1-hydroxymethyl-1-methyl-ethyl)-amide], the melting point is 228 to 231 °C.
Turning to `Nc1ccc(C#Cc2cnc3c(F)cc(-c4ccc(Cl)cc4)cn23)cn1` [Example 241, 5-[6-(4-Chloro-phenyl)-8-fluoro-imidazo[1,2-a]pyridin-3-ylethynyl]-pyridin-2-ylamine], the melting point is 259 °C.
`CC(CO)(CO)NS(=O)(=O)c1cncc(C#Cc2cnn3c(C(F)F)cc(-c4ccc(C(F)(F)F)cc4)nc23)c1` [Example 26, 5-[7-Difluoromethyl-5-(4-trifluoromethyl-phenyl)-pyrazolo[1,5-a]pyrimidin-3-ylethynyl]-pyridine-3-sulfonic acid (2-hydroxy-1-hydroxymethyl-1-methyl-ethyl)-amide] registered a melting point of 204 to 206 °C.
`NS(=O)(=O)c1ccc(C#Cc2cnn3c(C4CC4)cc(-c4ccc(Cl)cc4)nc23)cc1` [Example 63, 4-[5-(4-Chloro-phenyl)-7-cyclopropyl-pyrazolo[1,5-a]pyrimidin-3-ylethynyl]-benzenesulfonamide] yielded a melting point of 225 to 228 °C.
Under `COCCNS(=O)(=O)c1ccc(C#Cc2cnn3c(C(F)F)cc(-c4ccc(C(F)(F)F)cc4)nc23)cc1` [Example 139, 4-[7-Difluoromethyl-5-(4-trifluoromethyl-phenyl)-pyrazolo[1,5-a]pyrimidin-3-ylethynyl]-N-(2-methoxy-ethyl)-benzenesulfonamide] stands 184 to 186 °C; under `O=S(=O)(NCc1ccncc1)c1ccc(C#Cc2cnn3c(C(F)(F)F)cc(-c4ccc(C(F)(F)F)cc4)nc23)s1` [Example 272, 5-[7-Trifluoromethyl-5-(4-trifluoromethyl-phenyl)-pyrazolo[1,5-a]pyrimidin-3-ylethynyl]-thiophene-2-sulfonic acid (pyridin-4-ylmethyl)-amide], 170 °C; under `O=S(=O)(c1ccc(C#Cc2cnn3c(C(F)F)cc(-c4cccc(C(F)(F)F)c4)nc23)s1)N(CCO)CCO` [Example 264, 5-[7-Difluoromethyl-5-(3-trifluoromethyl-phenyl)-pyrazolo[1,5-a]pyrimidin-3-ylethynyl]-thiophene-2-sulfonic acid bis-(2-hydroxy-ethyl)-amide], 174 °C.
As for `O=S(=O)(NCc1cccnc1)c1ccc(C#Cc2cnn3c(C(F)F)cc(-c4ccc(C(F)(F)F)cc4)nc23)s1` [Example 278, 5-[7-Difluoromethyl-5-(4-trifluoromethyl-phenyl)-pyrazolo[1,5-a]pyrimidin-3-ylethynyl]-thiophene-2-sulfonic acid (pyridin-3-ylmethyl)-amide], the figure is 152 °C; as for `O=S(=O)(NCCc1ccncc1)c1ccc(C#Cc2cnn3c(C4CC4)cc(-c4ccc(Cl)cc4)nc23)s1` [Example 318, 5-[5-(4-Chloro-phenyl)-7-cyclopropyl-pyrazolo[1,5-a]pyrimidin-3-ylethynyl]-thiophene-2-sulfonic acid (2-pyridin-4-yl-ethyl)-amide], 172 to 174 °C; as for `Nc1ccc(C#Cc2cnc3c(C4CC4)cc(-c4ccc(Cl)cc4)cn23)cn1` [Example 233, 5-[6-(4-Chloro-phenyl)-8-cyclopropyl-imidazo[1,2-a]pyridin-3-ylethynyl]-pyridin-2-ylamine], 246 °C.
In the case of `O=S(=O)(NC(CO)(CO)CO)c1cncc(C#Cc2cnn3c(C(F)(F)F)cc(-c4ccc(C(F)(F)F)cc4)nc23)c1` [Example 22, 5-[7-Trifluoromethyl-5-(4-trifluoromethyl-phenyl)-pyrazolo[1,5-a]pyrimidin-3-ylethynyl]-pyridine-3-sulfonic acid (2-hydroxy-1,1-bis-hydroxymethyl-ethyl)-amide], the melting point is 230 to 232 °C.
As for `Nc1cnc(C#Cc2cnn3c(C(F)F)cc(-c4ccc(C(F)(F)F)cc4)nc23)cn1` [Example 287, 5-[7-Difluoromethyl-5-(4-trifluoromethyl-phenyl)-pyrazolo[1,5-a]pyrimidin-3-ylethynyl]-pyrazin-2-ylamine], the figure is 233 °C; as for `NS(=O)(=O)c1cccc(C#Cc2cnn3c(C4CC4)cc(-c4ccc(Cl)cc4)nc23)c1` [Example 72, 3-[5-(4-Chloro-phenyl)-7-cyclopropyl-pyrazolo[1,5-a]pyrimidin-3-ylethynyl]-benzenesulfonamide], 236 to 237 °C.
